Laboratory results from patent US20160074353A1, “USE OF PETROSELINIC ACID TO FIGHT AGAINST AESTHETIC DISORDERS OF THE BODY FIGURE” (L'OREAL, priority 2013, published 2016).

Tested on: lipoxin A4
Test: Synthesis/release of lipoxin A4 by stimulated (PMA/A23187 + DHA/EPA) mononuclear blood cells, LC-MS quantification, % modulation relative to the control
Type: cell-based
Settings: % modulation vs stimulated control
Method: Mononuclear blood cells are cultured under 5% CO2 and at 37° C. in a serum-free medium for macrophages (SFM Macrophage; Invitrogen 12065074) for 24 hours.
After this step, the medium is replaced with the same fresh test medium also containing the active agents at the various doses for 30 minutes in the presence of the various products to be evaluated, as indicated in the table of results below. The inflammatory response was then triggered in the presence of phorbol myristate (0.05 μM) and calcium ionophore (1 μM) and of a lipid substrate mixture composed of docosahexaenoic acid (DHA—1 μg/mL) and eicosapentaenoic acid (EPA—1 μg/mL).
The supernatants were then collected after 2 hours of stimulation and frozen at −80° C. before preparation for analysis by mass spectrometry.
Experimental triplicates (three wells) were prepared per experimental condition. Into each culture plate was placed a control corresponding to cells stimulated with the PMA/A23187 mixture and/or with addition of the equimolar mixture of fatty acids.
The thawed supernatants were concentrated by solid-phase extraction (SPE) and taken up in methanol before spectrometric analysis. The analytical method used consists in separating the various analytes by high-pressure liquid chromatography as a function of their retention time and in quantifying them by mass spectrometry. […]

Compound	Level of lipoxin A4 production (zinc gluconate 0.005 mg/ml) [%]	Level of lipoxin A4 production (taurine 3.1 mg/ml)
Zinc gluconate	−5	
NCCS(=O)(=O)O [Taurine]		+38%
